The values that follow come from patent US11186575B2, “Treatment of helicobacter pylori infections” (Albert Einstein College of Medicine, Inc., priority 2012, dated 2021).

Read-outs that look alike come from different tables or passages of the source. Bounds are passed on as bounds.

For data set [1], the system named is H. pylori. Nature of the data set: Zone of inhibition (disc) on H. pylori. In kind it is cell-based, Helicobacter pylori. Conditions: for zones of inhibition, comparison of antibiotics: equivalent amounts (10 ng or 20 ng per disc). As for the experimental part: FIG. 3A-3B: The effects of BuT-DADMe-ImmA (30) on H. pylori growth. A. The effects of increasing the concentration of BuT-DADMe-ImmA (ng/ml) on growth on blood agar. B. The inhibitory effects of BuT-DADMe-ImmA are compared with amoxicillin, metronidazole and tetracyclin in zone of inhibition studies. Drug concentrations were: 0 (top disc), 10 ng (middle disc) or 20 ng (bottom disc). Each specified antibiotic was applied to the disc in the same manner.
(§1) H. pylori were grown for 72 hours under microaerophilic condition (5% O2, 10% CO2 and 85% N2) at 37° C. on tryptic soy agar with 5% horse blood. To determine the MIC values, the test substance was added to the gel solution right before pouring. To compare the zones of inhibition, specific antibiotics were added to the center of disc after spreading H. pylori, and then H. pylori was allowed to grow for 72 hours under microaerophilic condition at 37° C.
Commonly used antibiotics in H. pylori infections include amoxicillin, metronidazole and tetracycline. The anti-H. pylori effects of BuT-DADMe-ImmA (30) were compared to those antibiotics in common use. […] Thus, BuT-DADMe-ImmA is more efficient at inhibition of H. pylori growth than commonly used antibiotics.

Another data set has as its system E. coli. The conditions noted are these: reference 6; cited from earlier work.
The test system of another data set is K. pneumoniae. Nature of the data set: Growth of K. pneumoniae on MacConkey agar. In kind it is cell-based. Conditions: culture concentrations to 5 μg/ml, 24 hours. As for the experimental part: (§2) At the desired concentration of the test substance BuT-DADMe-ImmA (30), K pneumoniae, S. flexneri and S. enterica were grown on MacConkey agar at 37° C. for 24 hours, and S. aureus and P. aeruginosa were grown on LB agar at 37° C. for 24 hours.
(§3) In most bacteria, MTANs are expressed and catalyze the hydrolysis of the N-ribosidic bonds of 5′-methylthioadenosine and S-adenosylhomocysteine. The two reactions are involved in bacterial quorum sensing, sulfur recycling via S-adenosylmethionine and polyamine synthesis^16; however, most bacterial MTANs are not essential for bacterial proliferation as judged by planktonic growth conditions. […] The effects BuT-DADMe-ImmA were also tested on the growth for additional clinically common pathogens, S. aureus, K pneumoniae, S. flexneri, S. enterica and P. aeruginosa. […] Because of the inhibitor specificity for this rare menaquinone pathway, treatment of H. pylori infections with BuT-DADMe-ImmA would be unlikely to generate antibiotic resistance in off-target bacterial species.

Data set [2] addresses T1, H. pylori MTAN (Helicobacter pylori, UniProt Q9ZMY2).
T1 construct: His6 (N); made in house; host or cells: E. coli BL21 (DE3)
T1 sequence (Q9ZMY2 1-230): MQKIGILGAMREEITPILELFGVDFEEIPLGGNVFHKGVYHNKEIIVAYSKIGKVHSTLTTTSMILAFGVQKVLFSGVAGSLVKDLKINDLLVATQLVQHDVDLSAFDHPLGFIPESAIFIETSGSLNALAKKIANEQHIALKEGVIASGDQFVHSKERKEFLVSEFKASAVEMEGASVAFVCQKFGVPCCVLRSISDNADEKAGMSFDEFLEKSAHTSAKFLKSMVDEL
Nature of the data set: Ki determination: inhibition of recombinant HpMTAN, xanthine oxidase coupled assay, 5′-methylthioadenosine as substrate. It counts as biochemical. As for the experimental part: The purification procedure of HpMTAN was described previously^10. Briefly, BL21 (DE3) cells harboring a plasmid encoding HpMTAN with an N-terminal His6-tag were grown to an optical density of 0.7 measured at 595 nm and IPTG was introduced to a final concentration of 0.5 mM. After another 15 h at 22° C., cells were collected by centrifugation. The pellet was suspended and later disrupted by pressure cell and sonication. The soluble portion was applied to a Ni-NTA column and HpMTAN was eluted with an imidazole concentration gradient of 200 to 500 mM. The protein was desalted using a Superdex G15 gel-filtration column then equilibrated and concentrated in 10 mM Hepes, 30 mM KCl, pH 7.6. The purity was confirmed by SDS-PAGE.
(§4) Kinetics of HpMTAN were determined using a direct assay involving absorbance decrease at 274 nm continuously as a consequence of formation of free adenine from 5′-methylthioadenosine. The Ki and Ki* values of BuT-DADMe-ImmA (30) were determined using coupled assays, in which xanthine oxidase was used as the coupling enzyme and absorbance increase was followed at 292 nm as the product adenine is converted to 2,8-dihydroxyadenine. Both assays have been previously described
(§5) BuT-DADMe-ImmA (30) was previously characterized as a transition state analogue inhibitor of EcMTAN (FIG. 1C)^8. Here, inhibition assays were performed using BuT-DADMe-ImmA against recombinant HpMTAN with 5′-methylthioadenosine as substrate. Purified HpMTAN uses both 5′-methylthioadenosine and 6-amino-6-deoxyfutalosine as facile substrates. […] The low Kd value supports the proposal that BuT-DADMe-ImmA is a transition state analogue inhibitor for HpMTAN. […] The nitrogen of the hydroxypyrrolidine moiety has a pKa value of 9, and thus mimics the positive charge of a ribocation at the transition state. The methylene bridge extends the distance between the sugar and the purine base leaving group, as this distance is near 3 Å at the transition state. The 9-deazaadenine alters conjugation in the purine ring, causing an elevated pKa and protonation of N7, resembling the N7-protonated adenine leaving group at the transition state.

For data set [3], the target named is T2, MTAN (Vibrio cholerae serotype O1, UniProt Q9KPI8).
T2 construct: host or cells: V. cholerae cells
The conditions noted are these: reference 6; cited from earlier work.

For data set [4], the system named is H. pylori. Nature of the data set: H. pylori growth on tryptic soy agar with 5% horse blood (MIC). In kind it is cell-based, Helicobacter pylori. The conditions noted are these: for MIC90: Helicobacter pylori. As for the experimental part:
as §1
The effects of BuT-DADMe-ImmA (30) were tested on H. pylori growing on 5% horse blood agar. At 6 ng/ml, slight growth was detected and at 8 ng/ml, no growth was detected, therefore the MIC90 value for inhibition of H. pylori growth is <8 ng/ml (FIG. 3A).

Another data set relates to P. aeruginosa. Nature of the data set: Growth of P. aeruginosa on LB agar. In kind it is cell-based. The conditions noted are these: culture concentrations to 5 μg/ml, 24 hours. As for the experimental part:
as §2, §3

Data set [5] concerns the target T3, MTAN (Escherichia coli, UniProt P0AF12).
T3 construct: host or cells: E. coli cells
The conditions noted are these: reference 6; cited from earlier work.

The next data set relates to S. aureus. The experiment in a line: Growth of S. aureus on LB agar. In kind it is cell-based. The conditions noted are these: culture concentrations to 5 μg/ml, 24 hours. As for the experimental part:
as §2, §3

A further data set concerns S. flexneri. The experiment in a line: Growth of S. flexneri on MacConkey agar. It counts as cell-based. Conditions: culture concentrations to 5 μg/ml, 24 hours. On the procedure:
as §2, §3

Data set [6] addresses T1, H. pylori MTAN. The conditions noted are these: Table 3, cited from earlier work.
A further data set has as its system S. enterica. Nature of the data set: Growth of S. enterica on MacConkey agar. In kind it is cell-based. The conditions noted are these: culture concentrations to 5 μg/ml, 24 hours. On the procedure: as §2, §3
For data set [7] the following is noted: stated without a test; cited from earlier work.
Another data set concerns V. cholerae. Conditions: reference 6; cited from earlier work.
For a further data set, the target named is T4, HpMTAN (Helicobacter pylori, UniProt Q9ZMY2).
T4 construct: His6 (N); made in house; host or cells: E. coli BL21 (DE3)
T4 sequence (Q9ZMY2 1-230): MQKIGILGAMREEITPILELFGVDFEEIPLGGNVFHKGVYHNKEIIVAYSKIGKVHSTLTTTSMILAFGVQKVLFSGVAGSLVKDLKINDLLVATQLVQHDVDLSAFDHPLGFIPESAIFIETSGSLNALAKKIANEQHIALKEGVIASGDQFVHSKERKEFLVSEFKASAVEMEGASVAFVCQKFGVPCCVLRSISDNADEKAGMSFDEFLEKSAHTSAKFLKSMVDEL
Nature of the data set: Kinetics of HpMTAN with substrates, direct assay (absorbance at 274 nm). The conditions noted are these: substrate of purified HpMTAN. It counts as biochemical. On the procedure: as §4
as §5, with “The 9-deazaadenine alters conjugation in the purine ring, causing an elevated pKa and protonation of N7, resembling the N7-protonated adenine leaving group at the transition state.” left out

Substrate in data set [8]: CC(O)[C@H]1O[C@@H](n2cnc3c(N)ncnc32)[C@H](S)[C@@H]1O
Described as above. It counts as biochemical, Helicobacter pylori. Conditions: other: substrate of purified HpMTAN. As for the experimental part: as §4, §5

As a reminder, the Ki is the equilibrium dissociation constant of an inhibitor or competing ligand from its target. The term Kd denotes a measure of binding affinity in units of concentration. Broadly, the Km is the concentration of substrate that gives half-maximal velocity. Usually kcat/Km stands for the turnover number divided by the Michaelis constant.

T3 sequence (P0AF12 whole entry): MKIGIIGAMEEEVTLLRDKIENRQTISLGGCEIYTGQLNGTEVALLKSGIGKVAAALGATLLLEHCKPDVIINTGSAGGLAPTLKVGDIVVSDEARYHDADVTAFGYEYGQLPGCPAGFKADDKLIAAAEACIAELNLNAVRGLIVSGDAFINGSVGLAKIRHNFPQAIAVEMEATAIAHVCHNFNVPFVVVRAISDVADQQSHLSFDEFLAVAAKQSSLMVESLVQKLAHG
T2 sequence (Q9KPI8 whole entry): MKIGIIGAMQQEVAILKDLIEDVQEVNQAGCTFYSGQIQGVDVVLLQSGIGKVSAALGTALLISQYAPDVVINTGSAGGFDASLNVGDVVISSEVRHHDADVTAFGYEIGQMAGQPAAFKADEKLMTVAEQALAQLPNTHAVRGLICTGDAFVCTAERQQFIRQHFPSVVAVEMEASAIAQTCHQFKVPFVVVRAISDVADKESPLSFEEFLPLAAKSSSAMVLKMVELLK

For `CC1(C)S[C@@H]2[C@H](NC(=O)[C@H](N)c3ccc(O)cc3)C(=O)N2[C@H]1C(=O)O` [amoxicillin, reference compound], the “zones of inhibition, comparison of antibiotics” value (“zones of inhibition” for short) in the data set on H. pylori [1] was “smaller zone of growth inhibition than BuT-DADMe-ImmA”.
`Cc1ncc([N+](=O)[O-])n1CCO` [metronidazole, reference compound]: the “zones of inhibition” value with H. pylori [1] is given as “no growth inhibition”.
On to `CCCCSC[C@H]1CN(Cc2c[nH]c3c(N)ncnc23)C[C@@H]1O` [Compound 30, (3R,4S)-4-(1-butylthiomethyl)-1-[(9-deaza-adenin-9-yl)-methyl]-3-hydroxypyrrolidine], for which, in the data set on E. coli, the “effect on growth of E. coli” value is reported as “did not affect the growth”. Moreover, the “growth inhibition of K. pneumoniae” value in the data set on K. pneumoniae is listed as “no growth inhibition”. The Ki is 0.8 nM on H. pylori MTAN [2] (5′-methylthioadenosine as substrate, read-out: initial inhibition constant (Ki)); 0.036 ± 0.002 nM on H. pylori MTAN [6] (value from Reference 10, read-out: Inhibition of H. pylori MTAN Ki*); 0.79 ± 0.04 nM on H. pylori MTAN [6] (value marked (Reference 10), read-out: Inhibition of H. pylori MTAN Ki). In addition, at H. pylori MTAN [2] (Km 0.8 μM for 6-amino-6-deoxyfutalosine as substrate), the Km/Kd ratio is 22,200. Further, the Kd at H. pylori MTAN [2] (following slow-onset of inhibition, read-out: equilibrium dissociation constant (Ki*=Kd)) came to 0.036 nM. Besides, the “MTAN activity in V. cholerae” value on MTAN [3] is “totally abolished”. Besides, the MIC90 is under 8 ng/mL in the data set with H. pylori [4] (5% horse blood agar, read-out: MIC90 value for inhibition of H. pylori growth); 6 to 8 ng/mL with H. pylori [4] (Table 3, agar plate, 72 hours, microaerophilic, read-out: Inhibition of H. pylori growth MIC90); 0.023 µM with H. pylori [4] (corresponds to MIC90 of 8 ng/ml, read-out: MIC90 as chemical concentration). The H. pylori growth result is “slight growth” in the data set with H. pylori [4] (at 6 ng/ml, 5% horse blood agar) and “no growth” in the data set on H. pylori [4] (at 8 ng/ml, 5% horse blood agar). In addition, the “growth inhibition of P. aeruginosa” value with P. aeruginosa was “no growth inhibition”. Besides, on MTAN [5], the “MTAN activity in E. coli” value is “totally abolished”. Also, the “growth inhibition of S. aureus” value with S. aureus is given as “no growth inhibition”. Moreover, in the data set on S. flexneri, the “growth inhibition of S. flexneri” value is “no growth inhibition”. Besides, the results for the zones of clearance entry in the data set with H. pylori [1] (10 ng on disc) and in the data set on H. pylori [1] (20 ng on disc) were “Small zones of clearance” and “large zones”, respectively. For the same molecule, the “zones of inhibition” value in the data set on H. pylori [1] is listed as “greater than those for any of the other antibiotics”. In addition, the “growth inhibition of S. enterica” value in the data set on S. enterica was “no growth inhibition”. Also, the “pKa value of the nitrogen of the hydroxypyrrolidine moiety” value in data set [7] is 9. Further, the “effect on growth of V. cholerae” value with V. cholerae is listed as “did not affect the growth”.
`Nc1ncnc2c1ncn2[C@@H]1O[C@H](CCC(=O)c2cccc(C(=O)O)c2)[C@@H](O)[C@H]1O` [6-amino-6-deoxyfutalosine]: on HpMTAN, the Km worked out at 0.8 ± 0.3 µM. Moreover, the kcat on HpMTAN (in 1/s) is given as 4.3±0.9.

B1: HpMTAN (Helicobacter pylori J99) (protein)
chain: MQKIGILGAMREEITPILELFGVDFEEIPLGGNVFHKGVYHNKEIIVAYSKIGKVHSTLTTTSMILAFGVQKVLFSGVAGSLVKDLKINDLLVATQLVQHDVDLSAFDHPLGFIPESAIFIETSGSLNALAKKIANEQHIALKEGVIASGDQFVHSKERKEFLVSEFKASAVEMEGASVAFVCQKFGVPCCVLRSISDNADEKAGMSFDEFLEKSAHTSAKFLKSMVDEL
notes: His6 (N); made in house; host or cells: E. coli BL21 (DE3)
Take B1: in data set [8], the Km is 0.6 ± 0.3 µM, the kcat was 12.1 s⁻¹ and the kcat/Km stood at 2e+07 M⁻¹ s⁻¹.
